Patent publication US20240158446A1, “CYCLIC COMPOUND HAVING SELECTIVE INHIBITORY ACTION ON KRAS OVER HRAS AND NRAS” (CHUGAI SEIYAKU KABUSHIKI KAISHA, priority 2021, published 2024)
Where two headings read alike, the source gives them in different places. Where a SMILES comes first, the peptide text is derived from it. Bridges are numbered along the chain shown (N, C = ends). [ ]: non-standard residue; d: D form. The star is where a group is joined. hPhe(3-Cl-4-CF3) = N[C@@H](CCc1ccc(C(F)(F)F)c(Cl)c1)C(=O)O; NPrPhe(4-CF3) = CCCN[C@@H](Cc1ccc(C(F)(F)F)cc1)C(=O)O; NMeGly(cPent) = CN[C@H](C(=O)O)C1CCCC1; Pro(4,4-F2) = O=C(O)[C@@H]1CC(F)(F)CN1; NMeD = CN[C@@H](CC(=O)O)C(=O)O; NMeL = CN[C@@H](CC(C)C)C(=O)O; Morpholide = C1CN(*)CCO1; Ac5c = NC1(C(=O)O)CCCC1; Aze = O=C(O)[C@@H]1CCN1; Ac4c = NC1(C(=O)O)CCC1; Sar = CNCC(=O)O

Key:
[1] = molecular target: GDP-bound NRAS wild-type protein (Homo sapiens, UniProt P01111); assay: Binding to NRAS by surface plasmon resonance (SPR), Single Cycle Kinetics; conditions: for NRAS/KRAS (ratio of KD value for NRAS to KD value for KRAS) / NRAS/KRAS (ratio of KD value with respect to NRAS to KD value with respect to KRAS): SPR, GDP-bound NRAS wild-type protein vs GDP-bound KRAS wild-type protein; for NRAS/KRAS (ratio of KD value with respect to GDP-bound NRAS wild-type protein to KD value with respect to KRAS): SPR KD ratio NRAS/KRAS, class symbols
[2] = molecular target: GDP-bound KRAS wild-type protein (Homo sapiens, UniProt P01116); assay: Binding to KRAS by surface plasmon resonance (SPR), Single Cycle Kinetics; conditions: GDP-bound KRAS wild-type protein, read-out: KRAS KD
[3] = molecular target: GDP-bound HRAS wild-type protein (Homo sapiens, UniProt P01112); assay: Binding to HRAS by surface plasmon resonance (SPR), Single Cycle Kinetics; conditions: for HRAS/KRAS (ratio of KD value for HRAS to KD value for KRAS) / HRAS/KRAS (ratio of KD value with respect to HRAS to KD value with respect to KRAS): SPR, GDP-bound HRAS wild-type protein vs GDP-bound KRAS wild-type protein; for HRAS/KRAS (ratio of KD value with respect to GDP-bound HRAS wild-type protein to KD value with respect to KRAS): SPR KD ratio HRAS/KRAS, class symbols
[4] = SPR Single Cycle Kinetics, 1:1 binding model

Sequence of GDP-bound KRAS wild-type protein (P01116 whole entry): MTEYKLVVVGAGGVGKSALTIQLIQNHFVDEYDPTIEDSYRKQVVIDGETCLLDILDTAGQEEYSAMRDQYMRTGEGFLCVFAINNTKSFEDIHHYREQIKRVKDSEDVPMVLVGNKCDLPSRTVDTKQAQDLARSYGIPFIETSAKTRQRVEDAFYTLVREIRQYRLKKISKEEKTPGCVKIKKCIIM
Sequence of GDP-bound NRAS wild-type protein (P01111 whole entry): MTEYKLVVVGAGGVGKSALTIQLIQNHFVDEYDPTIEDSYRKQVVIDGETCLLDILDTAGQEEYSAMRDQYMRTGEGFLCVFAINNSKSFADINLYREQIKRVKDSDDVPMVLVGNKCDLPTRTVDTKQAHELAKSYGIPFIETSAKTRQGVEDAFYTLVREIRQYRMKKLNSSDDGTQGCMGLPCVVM
Sequence of GDP-bound HRAS wild-type protein (P01112 whole entry): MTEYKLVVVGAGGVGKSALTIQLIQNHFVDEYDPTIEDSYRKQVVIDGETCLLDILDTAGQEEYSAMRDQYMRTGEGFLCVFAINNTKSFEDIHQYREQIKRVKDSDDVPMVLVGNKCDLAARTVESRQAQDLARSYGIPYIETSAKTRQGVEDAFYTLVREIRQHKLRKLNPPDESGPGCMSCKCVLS

| Structure (SMILES) | NRAS/KRAS (ratio of KD value for NRAS to KD value for KRAS) [1] | Kd ([2]; SPR, Single Cycle Kinetics) [pM] | HRAS/KRAS (ratio of KD value for HRAS to KD value for KRAS) [3] | Kd [2, 4] [pM] | also measured |
| --- | --- | --- | --- | --- | --- |
| CCCOC[C@H]1C(=O)N[C@@H]([C@@H](C)CC)C(=O)N(C)CC(=O)N(C)[C@H]2C/C=C\CCN(C2=O)[C@@H](Cc2ccc(C(F)(F)F)cc2)C(=O)N(C)CC(=O)N[C@@H](CCc2cc(F)c(C(F)(F)F)c(F)c2)C(=O)N2C[C@H](OCC)C[C@H]2C(=O)NC2(CC(C)(C)C2)C(=O)N(C)[C@@H](C2CCCC2)C(=O)N(C)[C@H](C(=O)N(CC)CC)CC(=O)N1C [PP1575] |  |  |  |  | NRAS/KRAS (ratio of KD value for NRAS to KD value for KRAS) ([1]; KD ratio class): B (a compound having 3 or more and less than 10 is denoted as B); Kd ([2]; SPR, Single Cycle Kinetics, 1:1 binding model): 550 pM; HRAS/KRAS (ratio of KD value for HRAS to KD value for KRAS) ([3]; KD ratio class): B (a compound having 3 or more and less than 10 is denoted as B) |
| CCO[C@@H]1C[C@H]2C(=O)NC3(CCCC3)C(=O)N(C)[C@@H](C3CCCC3)C(=O)N(C)[C@H](C(=O)N(C)C)CC(=O)N(C)[C@@H](CC)C(=O)N[C@@H]([C@@H](C)CC)C(=O)N(C)CC(=O)N(C)[C@H]3C[C@@H](C)CCN(C3=O)[C@@H](Cc3ccc(C(F)(F)F)cc3)C(=O)N(C)CC(=O)N[C@@H](CCc3cc(F)c(C(F)(F)F)c(F)c3)C(=O)N2C1 [PP1022] | C (A compound having a KD ratio of 0.1 or more and less than 3 is denoted as C) | 36 | B (a compound having 3 or more and less than 10 is denoted as B) |  |  |
| CCCN1C(=O)CN(C)C(=O)CNC(=O)[C@H]([C@@H](C)CC)NC(=O)[C@H](CC(C)C)N(C)C(=O)C[C@@H](C(=O)N2CCOCC2)N(C)C(=O)[C@H](C2CCCC2)N(C)C(=O)C2(CCC2)NC(=O)[C@@H]2CC(F)(F)CN2C(=O)[C@H](CCc2ccc(C(F)(F)F)c(Cl)c2)NC(=O)CN(C)C(=O)[C@@H]1Cc1ccc(C(F)(F)F)cc1 [PP0395] ([NMeL]IG[Sar][NPrPhe(4-CF3)][Sar][hPhe(3-Cl-4-CF3)][Pro(4,4-F2)][Ac4c][NMeGly(cPent)][NMeD]-Morpholide; lactam N-11) | B (a compound having 3 or more and less than 10 is denoted as B) |  | C (A compound having a KD ratio of 0.1 or more and less than 3 is denoted as C) | 68 |  |
| C#CC[C@H]1C(=O)N[C@@H]([C@@H](C)CC)C(=O)N(C)CC(=O)N(C)[C@H]2CCCCCN(C2=O)[C@@H](Cc2ccc(C(F)(F)F)cc2)C(=O)N(C)CC(=O)N[C@@H](CCc2cc(F)c(C(F)(F)F)c(F)c2)C(=O)N2C[C@H](OCC)C[C@H]2C(=O)NC2(CCC2)C(=O)N(C)[C@@H](C2CCCC2)C(=O)N(C)[C@H](C(=O)N(C)C)CC(=O)N1C [PP0666] |  |  |  | 330 | NRAS/KRAS (ratio of KD value with respect to NRAS to KD value with respect to KRAS) [1]: B (a compound having 3 or more and less than 10 is denoted as B); HRAS/KRAS (ratio of KD value with respect to HRAS to KD value with respect to KRAS) [3]: B (a compound having 3 or more and less than 10 is denoted as B) |
| CCCN1C(=O)[C@@H]2CCN2C(=O)CN(C)C(=O)[C@H]([C@@H](C)CC)NC(=O)[C@H](CC(C)C)N(C)C(=O)C[C@@H](C(=O)N(C)C)N(C)C(=O)[C@H](C2CCCC2)N(C)C(=O)C2(CCCC2)NC(=O)[C@@H]2CC(F)(F)CN2C(=O)[C@H](CCc2ccc(C(F)(F)F)c(Cl)c2)NC(=O)CN(C)C(=O)[C@@H]1Cc1ccc(C(F)(F)F)cc1 [PP0442] ([NMeL]I[Sar][Aze][NPrPhe(4-CF3)][Sar][hPhe(3-Cl-4-CF3)][Pro(4,4-F2)][Ac5c][NMeGly(cPent)][NMeD]-NMe2; lactam N-11) |  |  |  | 37 | NRAS/KRAS (ratio of KD value with respect to NRAS to KD value with respect to KRAS) [1]: C (A compound having a KD ratio of 0.1 or more and less than 3 is denoted as C); HRAS/KRAS (ratio of KD value with respect to HRAS to KD value with respect to KRAS) [3]: C (A compound having a KD ratio of 0.1 or more and less than 3 is denoted as C) |
| CCC[C@H]1C(=O)N[C@@H]([C@@H](C)CC)C(=O)N(C)CC(=O)N(C)[C@H]2C/C=C\CCN(C2=O)[C@@H](Cc2ccc(C(F)(F)F)cc2)C(=O)N(C)CC(=O)N[C@@H](CCc2ccc(C(F)(F)F)c(OC)c2)C(=O)N2C[C@H](OCC)C[C@H]2C(=O)N(C)C2(CCC2)C(=O)N(C)[C@@H](C2CCCC2)C(=O)N(C)[C@H](C(=O)N(C)C)CC(=O)N1C [PP2312] | A (a compound having 10 or more and less than 20 is denoted as A) | 30 | B (a compound having 3 or more and less than 10 is denoted as B) |  |  |
| CCC[C@H]1C(=O)N[C@@H]([C@@H](C)CC)C(=O)N2CCC[C@H]2C(=O)N(C)[C@H]2C/C=C\CCN(C2=O)[C@@H](CC2CCCCC2)C(=O)N(C)CC(=O)N[C@@H](CCc2ccc(C(F)(F)F)c(OC)c2)C(=O)N2C[C@H](OCC)C[C@H]2C(=O)N(C)C2(CCC2)C(=O)N(C)[C@@H](C(CC)CC)C(=O)N(C)[C@H](C(=O)N(C)C)CC(=O)N1C [PP2341] | A (a compound having 10 or more and less than 20 is denoted as A) | 3600 | A (a compound having 10 or more and less than 20 is denoted as A) |  |  |
| CCO[C@@H]1C[C@H]2C(=O)NC3(CC(C)(C)C3)C(=O)N(C)[C@@H](C(CC)CC)C(=O)N(C)[C@H](C(=O)N(C)C)CC(=O)N(C)[C@@H](CC3CCC3)C(=O)N[C@@H]([C@@H](C)CC)C(=O)N(C)CC(=O)N(C)[C@H]3C/C=C\CCN(C3=O)[C@@H](Cc3ccc(C(F)(F)F)cc3)C(=O)N(C)CC(=O)N[C@@H](CCc3ccc(C(F)(F)F)c(Cl)c3)C(=O)N2C1 [PP2138] | A (a compound having 10 or more and less than 20 is denoted as A) | 440 | A (a compound having 10 or more and less than 20 is denoted as A) |  |  |
| CC[C@H](C)[C@@H]1NC(=O)[C@H](CC(C)C)N(C)C(=O)C[C@@H](C(=O)N2CCOCC2)N(C)C(=O)[C@H](C2CCCC2)N(C)C(=O)C2(CCC2)NC(=O)[C@@H]2C[C@@H](OCC3CCCC3)CN2C(=O)[C@H](CCc2cc(F)c(C(F)(F)F)c(F)c2)NC(=O)CN(C)C(=O)[C@H](Cc2ccc(C(F)(F)F)cc2)N2CCCC[C@@H](C2=O)N(C)C(=O)CN(C)C1=O [PP1001] | B (a compound having 3 or more and less than 10 is denoted as B) | 100 | B (a compound having 3 or more and less than 10 is denoted as B) |  |  |
| CCO[C@@H]1C[C@H]2C(=O)NC3(CCC3)C(=O)N(C)[C@@H](C3CCCC3)C(=O)N(CCC3CCCC3)[C@H](C(=O)N(C)C)CC(=O)N(C)[C@@H](CC)C(=O)N[C@@H]([C@@H](C)CC)C(=O)N(C)CC(=O)N(C)[C@H]3C/C=C\CCN(C3=O)[C@@H](Cc3ccc(C(F)(F)F)cc3)C(=O)N(C)CC(=O)N[C@@H](CCc3cc(F)c(C(F)(F)F)c(F)c3)C(=O)N2C1 [PP0982] | AA (a compound having 20 or more is denoted as AA) | 990 | A (a compound having 10 or more and less than 20 is denoted as A) |  |  |
| CCC(CC)[C@H]1C(=O)N(C)[C@H](C(=O)N(C)C)CC(=O)N(C)[C@@H](COC)C(=O)N[C@@H]([C@@H](C)CC)C(=O)N(C)CC(=O)N(C)[C@H]2C/C=C\CCN(C2=O)[C@@H](Cc2ccc(C(F)(F)F)cc2)C(=O)N(C)CC(=O)N[C@@H](CCc2cc(F)c(C(F)(F)F)c(F)c2)C(=O)N2CC3(CC3)C[C@H]2C(=O)NC2(CC(C)(C)C2)C(=O)N1C [PP2961] |  |  |  | 360 | NRAS/KRAS (ratio of KD value with respect to GDP-bound NRAS wild-type protein to KD value with respect to KRAS) [1]: AA (a compound having 20 or more is denoted as AA); HRAS/KRAS (ratio of KD value with respect to GDP-bound HRAS wild-type protein to KD value with respect to KRAS) [3]: A (a compound having 10 or more and less than 20 is denoted as A) |
| CCO[C@@H]1C[C@H]2C(=O)NC3(CCC3)C(=O)N(C)[C@@H](C3CCCC3)C(=O)N(C)[C@H](C(=O)N(C)C)CC(=O)N(C)[C@@H](CC3CCCC3)C(=O)N[C@@H]([C@@H](C)CC)C(=O)N(C)CC(=O)N(C)[C@H]3C/C=C\CCN(C3=O)[C@@H](Cc3ccc(C)cc3)C(=O)N(C)CC(=O)N[C@@H](CCc3cc(Cl)c(C(F)(F)F)c(Cl)c3)C(=O)N2C1 [PP2679] |  |  |  | 99 | NRAS/KRAS (ratio of KD value with respect to GDP-bound NRAS wild-type protein to KD value with respect to KRAS) [1]: A (a compound having 10 or more and less than 20 is denoted as A); HRAS/KRAS (ratio of KD value with respect to GDP-bound HRAS wild-type protein to KD value with respect to KRAS) [3]: A (a compound having 10 or more and less than 20 is denoted as A) |
| CCC[C@H]1C(=O)N[C@@H]([C@@H](C)CC)C(=O)N(C)CC(=O)N(C)[C@H]2C/C=C\CCN(C2=O)[C@@H](Cc2ccc(C)cc2)C(=O)N(C)CC(=O)N[C@@H](CCc2ccc(C(F)(F)F)c(Cl)c2)C(=O)N2C[C@H](OCC)C[C@H]2C(=O)NC2(CC(C)(C)C2)C(=O)N(C)[C@@H](CC(F)(F)F)C(=O)N(C)[C@H](C(=O)N(C)C)CC(=O)N1C [PP2226] | A (a compound having 10 or more and less than 20 is denoted as A) | 820 | A (a compound having 10 or more and less than 20 is denoted as A) |  |  |
